Measured values from patent US6331646A, “Amorphous N-[N-(3,3-dimethylbutyl)-L-α-aspartyl]-L-phenylalanine 1-methyl ester” (The NutraSweet Co., priority 1999, dated 2001).
Like-named read-outs stand apart in the source and are kept apart here.

Legend:
Sweetening potency = conditions: amorphous neotame; "is believed to have"
[1] = Solubility measurements in several solvent systems; type: physicochemical; conditions: for Solubility, 10:90 EtOH:H2 O: 10:90 Ethanol (EtOH):H2 O; for Solubility, 50:50 EtAc:Hexane: 50:50 Ethyl Acetate (EtAc):Hexane
Description: (§1) 25 grams of neotame was spread out equally on six containers and heated slowly past its melting point of about 82° C. until a temperature of about 92° C. was reached. […] Once 92° C. was reached, all of the neotame was melted. The containers containing the neotame were removed from the oven and allowed to cool to room temperature, about 23° C. The neotame was removed from the containers, and ground to a […] powder with a mortar and pestle. The x-ray diffraction pattern of the resulting amorphous neotame is illustrated in FIG. 1. Rates of dissolution and solubility measurements were then determined in several different solvent systems (deionized water; 0.1M phosphate (pH3) in water; 10:90 Ethanol (EtOH):H2 O; and 50:50 Ethyl Acetate (EtAc):Hexane) and compared to the conventional form of the neotame monohydrate.

[2] = Rate of dissolution compared to neotame monohydrate; type: physicochemical; conditions: in a variety of solvents commonly used in the food industry; FIG. 3 and FIG. 4 at 20° C.
Description: as §1, with “monohydrate. The solubility results are set forth below:” for “monohydrate.”
FIG. 3 illustrates a comparison of the dissolution of the amorphous neotame of Example 1 with neotame monohydrate in deionized water at 20° C. FIG. 4 illustrates a similar comparison in 0.1 M phosphate buffer.

[3] = known sweetener neotame; cited from earlier work

Compound	sweetening potency relative to aspartame (believed) (Sweetening potency)	Solubility, 0.1 M Phosphate pH3 ([1]; 0.1M phosphate (pH3) in water)	Solubility, 10:90 EtOH:H2 O [1]	Solubility, 50:50 EtAc:Hexane [1]	Solubility, Water ([1]; deionized water)	solubility compared to that of the monohydrate form ([1]; in a variety of solvents commonly used in the food industry)	rate of dissolution compared to that of the monohydrate form [2]	solubility ([1]; 0.1 m phosphate, pH 3, 0.1M phosphate (pH3) in water, read-out: Solubility, 0.1 M Phosphate pH3)	solubility ([1]; water, deionized water, read-out: Solubility, Water)	sweetening potency relative to aspartame [3]	sweetening potency relative to sucrose [3]
COC(=O)[C@H](Cc1ccccc1)NC(=O)[C@H](CC(=O)O)NCCC(C)(C)C [Example 1, amorphous N-[N-(3,3-dimethylbutyl)-L-α-aspartyl]-L-phenylalanine 1-methyl ester]	around 40 times that of aspartame	1.49 grams of neotame/100 grams sol	1.57 grams of neotame/100 grams sol	3.07 grams of neotame/100 grams sol	1.35 grams of neotame/100 grams sol	higher solubility	reduced rate of dissolution	–	–	–	–
COC(=O)[C@H](Cc1ccccc1)NC(=O)[C@H](CC(=O)O)NCCC(C)(C)C [Neotame Monohydrate, N-[N-(3,3-dimethylbutyl)-L-α-aspartyl]-L-phenylalanine 1-methyl ester]	–	–	1.55 grams of neotame/100 grams sol	1.29 grams of neotame/100 grams sol	–	–	–	13.5 mg/mL	12.8 mg/mL	–	–
COC(=O)[C@H](Cc1ccccc1)NC(=O)[C@H](CC(=O)O)NCCC(C)(C)C [Neotame, N-[N-(3,3-dimethylbutyl)-L-α-aspartyl]-L-phenylalanine 1-methyl ester]	–	–	–	–	–	–	–	–	–	about 40 times that of aspartame	about 8,000 times that of sucrose
